ChEMBL document CHEMBL1255267, “Reduced Susceptibility of Proteus mirabilis to triclosan” (2008)
Values after ≈ are worked out from the molar mass of the structure shown.

Test system: Proteus mirabilis
Experiment: Antibacterial activity against Proteus mirabilis M 29 mutant after 18 hrs by Etest method
Assay type: functional
Conditions: M 29, 18 h

Compound | MIC
O=C(O)c1cn(C2CC2)c2cc(N3CCNCC3)c(F)cc2c1=O [CIPROFLOXACIN] | 0.008 µg/mL (≈ 0.0241 µM)
CCn1cc(C(=O)O)c(=O)c2ccc(C)nc21 [NALIDIXIC ACID] | 2 µg/mL (≈ 8.61 µM)

Test system: Proteus mirabilis
Experiment: Antibacterial activity against Proteus mirabilis M 12 mutant after 18 hrs by Etest method
Assay type: functional
Conditions: M 12, 18 h

Compound | MIC
O=C(O)c1cn(C2CC2)c2cc(N3CCNCC3)c(F)cc2c1=O [CIPROFLOXACIN] | 0.006 µg/mL (≈ 0.0181 µM)
CCn1cc(C(=O)O)c(=O)c2ccc(C)nc21 [NALIDIXIC ACID] | 1.5 µg/mL (≈ 6.46 µM)

Test system: Proteus mirabilis
Experiment: Antibacterial activity against Proteus mirabilis M 42 mutant after 18 hrs by Etest method
Assay type: functional
Conditions: M 42, 18 h

Compound | MIC
O=C(O)c1cn(C2CC2)c2cc(N3CCNCC3)c(F)cc2c1=O [CIPROFLOXACIN] | 0.016 µg/mL (≈ 0.0483 µM)
CCn1cc(C(=O)O)c(=O)c2ccc(C)nc21 [NALIDIXIC ACID] | 2 µg/mL (≈ 8.61 µM)

Test system: Proteus mirabilis
Experiment: Antibacterial activity against Proteus mirabilis B2 after 18 hrs by Etest method
Assay type: functional
Conditions: B2, 18 h

Compound | MIC
O=C(O)c1cn(C2CC2)c2cc(N3CCNCC3)c(F)cc2c1=O [CIPROFLOXACIN] | 0.02 µg/mL (≈ 0.0604 µM)
CCn1cc(C(=O)O)c(=O)c2ccc(C)nc21 [NALIDIXIC ACID] | 2 µg/mL (≈ 8.61 µM)

Test system: Proteus mirabilis
Experiment: Antibacterial activity against Proteus mirabilis M 19 mutant after 18 hrs by Etest method
Assay type: functional
Conditions: M 19, 18 h

Compound | MIC
O=C(O)c1cn(C2CC2)c2cc(N3CCNCC3)c(F)cc2c1=O [CIPROFLOXACIN] | 0.05 µg/mL (≈ 0.151 µM)
CCn1cc(C(=O)O)c(=O)c2ccc(C)nc21 [NALIDIXIC ACID] | 2 µg/mL (≈ 8.61 µM)

Test system: Proteus mirabilis
Experiment: Antibacterial activity against Proteus mirabilis NP43 after 18 hrs by Etest method
Assay type: functional
Conditions: NP43, 18 h

Compound | MIC
O=C(O)c1cn(C2CC2)c2cc(N3CCNCC3)c(F)cc2c1=O [CIPROFLOXACIN] | 0.01 µg/mL (≈ 0.0302 µM)
CCn1cc(C(=O)O)c(=O)c2ccc(C)nc21 [NALIDIXIC ACID] | 2 µg/mL (≈ 8.61 µM)

Test system: Proteus mirabilis
Experiment: Antibacterial activity against Proteus mirabilis M 26 mutant after 18 hrs by Etest method
Assay type: functional
Conditions: M 26, 18 h

Compound | MIC
O=C(O)c1cn(C2CC2)c2cc(N3CCNCC3)c(F)cc2c1=O [CIPROFLOXACIN] | 0.012 µg/mL (≈ 0.0362 µM)
CCn1cc(C(=O)O)c(=O)c2ccc(C)nc21 [NALIDIXIC ACID] | 1.5 µg/mL (≈ 6.46 µM)

Test system: Proteus mirabilis
Experiment: Antibacterial activity against Proteus mirabilis M 17 mutant after 18 hrs by Etest method
Assay type: functional
Conditions: M 17, 18 h

Compound | MIC
O=C(O)c1cn(C2CC2)c2cc(N3CCNCC3)c(F)cc2c1=O [CIPROFLOXACIN] | 0.006 µg/mL (≈ 0.0181 µM)
CCn1cc(C(=O)O)c(=O)c2ccc(C)nc21 [NALIDIXIC ACID] | 2 µg/mL (≈ 8.61 µM)

Test system: Proteus mirabilis
Experiment: Antibacterial activity against Proteus mirabilis M 21 mutant after 18 hrs by Etest method
Assay type: functional
Conditions: M 21, 18 h

Compound | MIC
O=C(O)c1cn(C2CC2)c2cc(N3CCNCC3)c(F)cc2c1=O [CIPROFLOXACIN] | 0.05 µg/mL (≈ 0.151 µM)
CCn1cc(C(=O)O)c(=O)c2ccc(C)nc21 [NALIDIXIC ACID] | 3 µg/mL (≈ 12.9 µM)

Test system: Proteus mirabilis
Experiment: Antibacterial activity against Proteus mirabilis M 35 mutant after 18 hrs by Etest method
Assay type: functional
Conditions: M 35, 18 h

Compound | MIC
O=C(O)c1cn(C2CC2)c2cc(N3CCNCC3)c(F)cc2c1=O [CIPROFLOXACIN] | 0.016 µg/mL (≈ 0.0483 µM)
CCn1cc(C(=O)O)c(=O)c2ccc(C)nc21 [NALIDIXIC ACID] | 2 µg/mL (≈ 8.61 µM)

Test system: Proteus mirabilis
Experiment: Antibacterial activity against Proteus mirabilis M 55 mutant after 18 hrs by Etest method
Assay type: functional
Conditions: M 55, 18 h

Compound | MIC
O=C(O)c1cn(C2CC2)c2cc(N3CCNCC3)c(F)cc2c1=O [CIPROFLOXACIN] | 0.02 µg/mL (≈ 0.0604 µM)
CCn1cc(C(=O)O)c(=O)c2ccc(C)nc21 [NALIDIXIC ACID] | 1.5 µg/mL (≈ 6.46 µM)

Test system: Proteus mirabilis
Experiment: Antibacterial activity against Proteus mirabilis NP37 after 18 hrs by Etest method
Assay type: functional
Conditions: NP37, 18 h

Compound | MIC
O=C(O)c1cn(C2CC2)c2cc(N3CCNCC3)c(F)cc2c1=O [CIPROFLOXACIN] | 0.02 µg/mL (≈ 0.0604 µM)
CCn1cc(C(=O)O)c(=O)c2ccc(C)nc21 [NALIDIXIC ACID] | 4 µg/mL (≈ 17.2 µM)

Test system: Proteus mirabilis
Experiment: Antibacterial activity against Proteus mirabilis M 40 mutant after 18 hrs by Etest method
Assay type: functional
Conditions: M 40, 18 h

Compound | MIC
O=C(O)c1cn(C2CC2)c2cc(N3CCNCC3)c(F)cc2c1=O [CIPROFLOXACIN] | 0.012 µg/mL (≈ 0.0362 µM)
CCn1cc(C(=O)O)c(=O)c2ccc(C)nc21 [NALIDIXIC ACID] | 1.5 µg/mL (≈ 6.46 µM)

Test system: Proteus mirabilis
Experiment: Antibacterial activity against Proteus mirabilis NP14 after 18 hrs by Etest method
Assay type: functional
Conditions: NP14, 18 h

Compound | MIC
O=C(O)c1cn(C2CC2)c2cc(N3CCNCC3)c(F)cc2c1=O [CIPROFLOXACIN] | 0.06 µg/mL (≈ 0.181 µM)
CCn1cc(C(=O)O)c(=O)c2ccc(C)nc21 [NALIDIXIC ACID] | 3 µg/mL (≈ 12.9 µM)

Test system: Escherichia coli
Experiment: Antibacterial activity against Escherichia coli 10418 after 18 hrs by Etest method
Assay type: functional
Conditions: Escherichia coli, 10418, 18 h

Compound | MIC
CCn1cc(C(=O)O)c(=O)c2ccc(C)nc21 [NALIDIXIC ACID] | 0.38 µg/mL (≈ 1.64 µM)

Test system: Proteus mirabilis
Experiment: Antibacterial activity against Proteus mirabilis NP55 after 18 hrs by Etest method
Assay type: functional
Conditions: NP55, 18 h

Compound | MIC
O=C(O)c1cn(C2CC2)c2cc(N3CCNCC3)c(F)cc2c1=O [CIPROFLOXACIN] | 0.016 µg/mL (≈ 0.0483 µM)
CCn1cc(C(=O)O)c(=O)c2ccc(C)nc21 [NALIDIXIC ACID] | 3 µg/mL (≈ 12.9 µM)

Test system: Proteus mirabilis
Experiment: Antibacterial activity against Proteus mirabilis M 44 mutant after 18 hrs by Etest method
Assay type: functional
Conditions: M 44, 18 h

Compound | MIC
O=C(O)c1cn(C2CC2)c2cc(N3CCNCC3)c(F)cc2c1=O [CIPROFLOXACIN] | 0.03 µg/mL (≈ 0.0905 µM)
CCn1cc(C(=O)O)c(=O)c2ccc(C)nc21 [NALIDIXIC ACID] | 1.5 µg/mL (≈ 6.46 µM)

Test system: Proteus mirabilis
Experiment: Antibacterial activity against Proteus mirabilis M 23 mutant after 18 hrs by Etest method
Assay type: functional
Conditions: M 23, 18 h

Compound | MIC
O=C(O)c1cn(C2CC2)c2cc(N3CCNCC3)c(F)cc2c1=O [CIPROFLOXACIN] | 0.05 µg/mL (≈ 0.151 µM)
CCn1cc(C(=O)O)c(=O)c2ccc(C)nc21 [NALIDIXIC ACID] | 2 µg/mL (≈ 8.61 µM)

Test system: Proteus mirabilis
Experiment: Antibacterial activity against Proteus mirabilis M 31 mutant after 18 hrs by Etest method
Assay type: functional
Conditions: M 31, 18 h

Compound | MIC
O=C(O)c1cn(C2CC2)c2cc(N3CCNCC3)c(F)cc2c1=O [CIPROFLOXACIN] | 0.008 µg/mL (≈ 0.0241 µM)
CCn1cc(C(=O)O)c(=O)c2ccc(C)nc21 [NALIDIXIC ACID] | 1.5 µg/mL (≈ 6.46 µM)

Test system: Proteus mirabilis
Experiment: Antibacterial activity against Proteus mirabilis M 48 mutant after 18 hrs by Etest method
Assay type: functional
Conditions: M 48, 18 h

Compound | MIC
O=C(O)c1cn(C2CC2)c2cc(N3CCNCC3)c(F)cc2c1=O [CIPROFLOXACIN] | 0.02 µg/mL (≈ 0.0604 µM)
CCn1cc(C(=O)O)c(=O)c2ccc(C)nc21 [NALIDIXIC ACID] | 1.5 µg/mL (≈ 6.46 µM)
